We go through 1 compound from patent US9181218B2, “Compounds for improved stem cell differentiation into hepatocytes” (Hoffmann-La Roche Inc., priority 2013, dated 2015).

The subject of data set [1] is Human iPSC-derived hepatocytes (iCell® Hepatocytes). The experiment in a line: Gene expression profiling of iCell Hepatocytes by microfluidic qRT-PCR. The format is cell-based. To be noted: multiple doses, FIG. 1. Here is the method:
Human iPSC-derived hepatocytes (iCell® Hepatocytes) were exposed to the compounds of formula I with the goal of identifying conditions that favor greater functionality that better models the adult organ. […] Gene expression changes were validated and confirmed in a secondary screen, and functional consequences were queried.
Fresh iCell® Hepatocytes (day 20-23) were plated and cultured according to iCell Hepatocytes Dissociation and Plating User's Guide at 60 k cells per well in 96 well BIO Collagen IV coated plates (BD Cat#354429) 4 Hours post plating Medium C was removed and replaced with a 1:50 Matrigel (Cat#354227) overlay in Medium D. We dosed the cells at 5 uM in Medium D and 1% DMSO 24 hours post plating. Day 3, media was removed and we dosed again at 5 uM. Day 4 we Harvested RNA.
Sample RNA was isolated using TaqMan® Gene Expression Cells-to-CT™ Kit (Life Technologies Cat#4387299) froze at −80 C at various time points post compound treatment. All samples were processed by microfluidic quantitative PCR using the Biomark Fluidigm 96.96 chips (BMK-M-96.96) and ABI Taqman probes. Normalization and model-based expression measurements were calculated using the Biogazelle qBASE and Genorm software. […] Expression values are calculated by the fold change over vehicle control. […]
A general note: In qPCR the cycle at which signal appears reflects the starting amount.

The subject of another data set is HBV. Description: Infection of iCell Hepatocytes with HBV. The format is cell-based, hepatitis B virus (HBV). Here is the method: Two hundred microliters of HBV-containing serum was applied onto a 10-50% Optiprep gradient in SW41 tubes. Samples were centrifuged at 100,000×g for 2 hr at 4 C. Five hundred microliters fractions were collected from the top; each fraction was analyzed for HBsAg (ELISA) and HBV DNA (TaqMan PCR). Fractions containing virus were stored at −80 C.
Fresh iCell® Hepatocytes (day 20-23) were plated and cultured according to iCell Hepatocytes Dissociation and Plating User's Guide at 60 k cells per well in 96 well BIO Collagen IV coated plates (BD Cat#354429) 4 Hours post plating Medium C was removed and replaced with a 1:50 Matrigel (Cat#354227) overlay in Medium D. Twenty four hours post plating, cells were treated with 1 uM of the compound of example 1 in Medium D containing 1% DMSO. Media containing fresh compound was replenished 2 days later. At day 4 post plating, cells were infected with HBV at MOI (multiplicity of infection) of 10. Briefly, purified virus was diluted in medium D containing the compound of example 1 and incubated with cells for 4-6 hr or overnight. After removal of virus inoculum, fresh media containing 1 uM of the compound of example 1 was added and cells were incubated for 14 days with a medium change every 2 days. Culture media were analyzed for secreted viral antigens (HBsAg, HBeAg) and HBV DNA.

Molecules are shown by their SMILES.

For `O=C(NCc1cccc(F)c1)c1cccc2nc(-c3c(NC[C@@H](O)c4ccccc4)cc[nH]c3=O)[nH]c12` [Example 1, 2-[4-((S)-2-hydroxy-2-phenyl-ethylamino)-2-oxo-1,2-dihydro-pyridin-3-yl]-3H-benzoimidazole-4-carboxylic acid 3-fluoro-benzylamide], in data set [1], the “expression of genes spanning hepatocyte function” value is listed as “global increase of genes spanning hepatocyte function”. In addition, the “infection of the four major HBV genotypes” value in the data set with HBV (iCell hepatocytes treated with compound) was “support robust infection of all four major HBV genotypes”. Further, the “infection with patient-derived vs cell culture-derived (HepG2.2.15) HBV” value in the data set with HBV (iCell hepatocytes treated with compound, FIG. 8) was “support infection of patient-derived, but not cell culture-derived, HBV”. In the data set with HBV (iCell hepatocytes, FIG. 3), the “cell susceptibility to HBV infection” value is listed as “cell susceptibility to HBV infection that occurred in a dose-dependent manner”. The “need for compound presence to maintain robust viral infection” value with HBV (pre-treated 6 d vs pre-treated and during infection (throughout)) is reported as “Continuous presence of the compound of example 1 is required”.
